Publication PMC4549712, “Inhibition of human GLUT1 and GLUT5 by plant carbohydrate products; insights into transport specificity” (Scientific Reports, 2015)
Several values for one entry are separate records, joined by “and”; a condition that tells them apart may be missing. Identical values can stand only once. Entries after “also recorded” stand apart in the source; their conditions may differ.

How the values were obtained:
[1] = target: T1, human GLUT5 (Homo sapiens, UniProt P22732); test: entrance counter-flow transport assay, GLUT5-mediated fructose transport in proteoliposomes; format: biochemical
T1 construct: Full length DNA was subcloned into pFastBac1 (Life Technologies) vector with a N-terminal hexahistidine tag; hexahistidine (thrombin-cleavable) (N, cleaved yes); made in house; host or cells: Sf21 insect cells (baculovirus, pFastBac1)
T1 sequence (P22732 1-501): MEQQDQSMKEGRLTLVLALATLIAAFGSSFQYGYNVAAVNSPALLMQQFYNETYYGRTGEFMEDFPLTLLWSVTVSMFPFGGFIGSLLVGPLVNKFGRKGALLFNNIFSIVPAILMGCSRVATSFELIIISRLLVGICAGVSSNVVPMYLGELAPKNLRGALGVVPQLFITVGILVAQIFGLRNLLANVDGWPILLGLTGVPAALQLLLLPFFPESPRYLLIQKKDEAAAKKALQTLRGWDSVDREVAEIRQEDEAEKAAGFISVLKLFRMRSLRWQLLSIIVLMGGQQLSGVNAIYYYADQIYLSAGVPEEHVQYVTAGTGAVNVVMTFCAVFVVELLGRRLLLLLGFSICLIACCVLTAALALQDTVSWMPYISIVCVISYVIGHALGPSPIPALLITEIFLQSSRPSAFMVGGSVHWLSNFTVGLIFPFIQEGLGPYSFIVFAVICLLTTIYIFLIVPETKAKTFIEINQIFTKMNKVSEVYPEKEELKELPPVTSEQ
Source text: Human GLUT1 and GLUT5 were expressed recombinantly in insect cell culture. The purified proteins were reconstituted into proteoliposomes. To measure the inhibition of GLUT1 or GLUT5 transport activity we used entrance counter-flow transport assay.
Proteoliposomes were generated according to the protocol from[30] with minor modifications. Liposomes were produced from a 95/5% (w/w) mix of soy phosphatidylcholine and cholesterol (Avanti Polar Lipids). Briefly, hexane-washed and vacuum-dried lipids were resuspended to 20 mg/ml in 100 mM KPi (pH 7.5), and then subjected to 11 freeze-and-thaw cycles in liquid nitrogen and room temperature water. The lipid mixture was extruded through a 0.1 μm polycarbonate filter. Prepared liposomes were destabilized with 4 mM Triton X-100 and mixed with purified protein in a 100:1 (w/w) ratio in 100 mM KPi (pH 7.5) 20% (v/v) glycerol, 200 mM (glucose or fructose). Detergent was removed by several additions of SM2 BioBeads (BioRad) and incubated overnight at 4 °C. After filtering out the BioBeads, proteoliposomes were diluted with 100 mM KPi (pH 7.5) 200 mM (glucose or fructose), and then collected by ultracentrifugation, at 200,000 × g and 4 °C, for 1 hour. The proteoliposomes pellet was resuspended in the above buffer so that O.D.600nm was ~30.
To measure hexose transport, we utilized entrance counter-flow assay. Transport was performed in a volume of 100 μL of 100 mM KPi (pH 7.5) buffer containing radioactive ^14C-hexose (4 μM fructose or 5 μM glucose) with inhibitors added before initiation of transport. […] The reaction was started by the addition of 3 μL concentrated proteoliposomes to the above solution and incubated at room temperature; the transport was stopped after one minute by addition of ice-chilled quench buffer [100 mM KPi (pH 5.5) and 100 mM LiCl]. The solution was filtered through a 0.4 μm pore size cellulose nitrate membrane filter (Whatman), and the filter was washed three times with quench buffer. The membrane filter was placed into a vial filled with BioSafe II scintillation liquid (Research Products International Corp.), and radioactivity was quantified with LS 6500 scintillation counter (Beckman). […] Data is presented as relative activity normalized to radioactivity of no inhibitor added as 100% and empty proteoliposomes as 0%. Kinetic parameters were fitted by nonlinear algorithm plots using Prism (GraphPad Software).

[2] = target: T2, GLUT1W388A (Homo sapiens, UniProt P11166, W388A); test: entrance counter-flow transport assay, glucose transport by GLUT1W388A proteoliposomes; format: biochemical; details: any tested concentration, up to 20 mM
T2 construct: Full length DNA was subcloned into pFastBac1 (Life Technologies) vector with a N-terminal hexahistidine tag; hexahistidine (thrombin-cleavable) (N, cleaved yes); made in house; host or cells: Sf21 insect cells (baculovirus, pFastBac1)
T2 sequence (P11166 1-492 W388A): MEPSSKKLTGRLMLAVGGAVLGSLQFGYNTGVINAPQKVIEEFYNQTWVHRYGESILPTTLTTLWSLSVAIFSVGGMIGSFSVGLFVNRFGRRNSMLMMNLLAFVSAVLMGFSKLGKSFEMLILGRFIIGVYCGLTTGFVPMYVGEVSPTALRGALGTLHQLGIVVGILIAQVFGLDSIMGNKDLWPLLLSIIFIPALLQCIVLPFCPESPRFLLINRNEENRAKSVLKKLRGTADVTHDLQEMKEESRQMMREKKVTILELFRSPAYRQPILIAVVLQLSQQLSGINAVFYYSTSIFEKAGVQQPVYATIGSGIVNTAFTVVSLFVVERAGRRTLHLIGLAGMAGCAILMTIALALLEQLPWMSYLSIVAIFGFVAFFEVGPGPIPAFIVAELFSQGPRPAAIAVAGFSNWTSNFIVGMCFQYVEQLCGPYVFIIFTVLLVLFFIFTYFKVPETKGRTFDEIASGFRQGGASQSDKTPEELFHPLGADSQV
Experimental: We expressed and purified GLUT1W388A and GLUT5A396W. Purified mutant proteins were reconstituted into proteoliposomes and activity was determined by entrance counter-flow transport assay.
cDNAs of GLUT1 and GLUT5 were purchased from Open Biosystems (GE Healthcare). Full length DNA was subcloned into pFastBac1 (Life Technologies) vector with a N-terminal hexahistidine tag. Bacmids were generated in DH10Bac E. coli cells (Life Technologies). Baculoviruses were produced using Cellfectin II Reagent and amplified in Sf21 insect cells (Life Technologies). Cells were maintained at 26 °C, and P1 (10^6 pfu/mL) was collected from infected cells after 72 hours. Sf21 cells were propagated in HyClone SFX-Insect media (GE Healthcare), supplemented with 5% fetal bovine serum (Biowest), antibiotics (100 units/mL Penicillin G and 100 μg/mL streptomycin sulfate) and amphotericin B (2.5 μg/mL). For recombinant protein expression, Sf21 cells in suspension culture at 2 × 10^6 cells/ml were infected with P3 viral stock (10^8 pfu/mL), at an MOI of 1.0 pfu/cell. Four days after viral infection, cells from 2 L culture were collected by centrifugation at 2,000 × g and 25 °C. […]

C=C1C[C@@]23CC[C@H]4[C@@](C)(CCC[C@@]4(C)C(=O)O[C@@H]4O[C@H](CO)[C@@H](O)[C@H](O)[C@H]4O)[C@@H]2CC[C@]1(O[C@@H]1O[C@H](CO)[C@@H](O)[C@H](O)[C@H]1O)C3 [Rub, Rubusoside]
inhibition of GLUT5 fructose transport activity ([1]; added at 20 mM): reducing activity to background levels
IC50 ([1]; entrance counter-flow): 6.7 mM and ~5 mM and 5 mM
inhibition of glucose transport by GLUT1W388A [2]: not inhibited; also recorded: did not inhibit
